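In this assay, cells in 96-well plates receive the compound at five concentrations for 48 hours. Endpoints are linearly interpolated between the surrounding concentrations. At the TGI there is no net growth.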
What was measured:
Assay in all cases: NCI anticancer screen, dose series, 48 h
MOLT-4 leukemia = tested on: MOLT-4 leukemia
NCI-H460 lung = tested on: NCI-H460 lung
UACC-62 melanoma = tested on: UACC-62 melanoma
RPMI-8226 leukemia = tested on: RPMI-8226 leukemia
A549 NSCLC = tested on: A549 NSCLC
SF-268 CNS = tested on: SF-268 CNS
OVCAR-8 ovarian = tested on: OVCAR-8 ovarian
KM12 colon = tested on: KM12 colon
K-562 leukemia = tested on: K-562 leukemia
NCI-H226 lung = tested on: NCI-H226 lung
SF-539 CNS = tested on: SF-539 CNS
SN12C renal = tested on: SN12C renal
MALME-3M melanoma = tested on: MALME-3M melanoma
SK-MEL-5 melanoma = tested on: SK-MEL-5 melanoma
HOP-92 NSCLC = tested on: HOP-92 NSCLC
SW-620 colon = tested on: SW-620 colon
SNB-19 CNS = tested on: SNB-19 CNS
UO-31 renal = tested on: UO-31 renal
NCI-H522 lung = tested on: NCI-H522 lung
SK-MEL-2 melanoma = tested on: SK-MEL-2 melanoma

Compound	TGI (MOLT-4 leukemia) [µM]	TGI (NCI-H460 lung) [µM]	TGI (UACC-62 melanoma) [µM]	TGI (RPMI-8226 leukemia) [µM]	TGI (A549 NSCLC) [µM]	TGI (SF-268 CNS) [µM]	TGI (OVCAR-8 ovarian) [µM]	TGI (KM12 colon) [µM]	TGI (K-562 leukemia) [µM]	TGI (NCI-H226 lung) [µM]	TGI (SF-539 CNS) [µM]	TGI (SN12C renal) [µM]	TGI (MALME-3M melanoma) [µM]	TGI (SK-MEL-5 melanoma) [µM]	TGI (HOP-92 NSCLC) [µM]	TGI (SW-620 colon) [µM]	TGI (SNB-19 CNS) [µM]	TGI (UO-31 renal) [µM]	TGI (NCI-H522 lung) [µM]	TGI (SK-MEL-2 melanoma) [µM]
COc1cc(N=Nc2cccc(S(=O)(=O)O)c2)ccc1N=Nc1ccc(/C=C/c2ccc(-n3on3-c3ccc(/C=C/c4ccc(N=Nc5ccc(N=Nc6cccc(S(=O)(=O)O)c6)cc5OC)cc4S(=O)(=O)O)c(S(=O)(=O)O)c3)cc2S(=O)(=O)O)c(S(=O)(=O)O)c1	> 100	> 100	> 100	> 100	> 100	> 100	> 100	> 100	> 100	> 100	> 100	> 100	> 100	> 100	> 100	> 100	> 100	> 100	> 100	> 100
N#CC(OC1OC(COC2OC(CO)C(O)C(O)C2O)C(O)C(O)C1O)c1ccccc1 (stereo not given)	> 225	> 225	> 225	> 225	> 225	> 225	> 225	> 225	> 225	> 225	> 225	> 225	> 225	> 225	> 225	> 225	> 225	> 225	> 225	> 225
CCC(C)C1NC(=O)C(NC(=O)c2c3[nH]c4c(C(=O)NC5C(=O)NC(C(C)CC)C(=O)N6CCCC6C(=O)N(C)CC(=O)N(C)C(C(C)C)C(=O)OC5C)ccc(C)c4oc-3c(C)c(=O)c2=O)C(C)OC(=O)C(C(C)C)N(C)C(=O)CN(C)C(=O)C2CCCN2C1=O (stereo not given)	> 39.8	8.45	17.6	35.1	> 100	97.4	38.3	> 56.7	> 65	> 51.6	37.4	> 100	22.8	> 100	> 80.3	> 93.7	> 100	> 77	5.06	17.2
C=CC1C(OC2OC(CO)C(O)C(O)C2O)OC=C(C(=O)OC)C1CC1CC(=O)CC(CCc2ccc(O)cc2)O1 (stereo not given)	> 100	> 100	> 100	> 100	> 100	> 100	> 100	> 100	> 100	> 100	> 100	> 100	> 100	> 100	> 100	> 100	> 100	> 100	> 100	> 100
O=C1NP23(OCCO2)Oc2ccccc2C3(C(F)(F)F)O1 (stereo not given)	> 100	> 100	> 100		> 100	> 100	> 100	> 100	> 100	> 100	> 100	> 100	> 100	> 100			> 100		> 100	> 100
O=C(O)C1C2C=CC(C2)C1c1ccccc1 (stereo not given)	> 100	> 100	> 100	> 100	> 100	> 100	> 100	> 100	> 100	> 100	> 100	> 100	> 100	> 100	> 100	> 100	> 100	> 100		> 100
CCOP(=O)(COCCn1ncc(=O)[nH]c1=O)OCC	> 100	> 100		> 100	> 100	> 100	> 100	> 100		> 100	> 100	> 100	> 100	> 100	> 100	> 100	> 100	> 100	> 100	> 100
CN1C(=O)CSC1=S	> 100	> 100	> 100	> 100	> 100	> 100	> 100	> 100	> 100	> 100	> 100	> 100	> 100	> 100	> 100	> 100		> 100	> 100	> 100
COc1ccc(/C(Cl)=C(\C=O)c2ccc(OC)c(OC)c2)cc1	> 100	> 100	> 100	> 100		> 100	> 100		> 100	> 100	58.5	> 100	> 100	> 100	53.4	> 100	> 100	> 100	85.3	76.6
CC(=O)O/C(=C1\C[C@H]2[C@@H]3CC=C4C[C@@H](OC(C)=O)CC[C@]4(C)[C@H]3CC[C@]2(C)C1=O)C(F)(F)F	7.37	18.3	20.2	15.8	36.8	19.9	16.8	31.8	15.1	40.7	15.2	24.1	9.53	14.4	17.7	19.8	40.6	32.1	8.99	17.2
COc1ccc(CC2c3cc(OC)c(OC)cc3CC[N+]2(C)C)cc1OC (stereo not given)	> 100	> 100	> 100	> 100	> 100	> 100	> 100	> 100	> 100	> 100	> 100	> 100	> 100	> 100	> 100	> 100	> 100	> 100	> 100	> 100
COc1cccc2cc(C(=O)O)c(=O)oc12	> 100	> 100	> 100	> 100	> 100	> 100	> 100	> 100	> 100	> 100	> 100	> 100	> 100	> 100	> 100	> 100	> 100	> 100	> 100	> 100
COc1c(OC(C)=O)c(OC(C)=O)cc2c1-c1ccc(SC)c(=O)cc1C(NC(C)=O)CC2 (stereo not given)	> 100	> 56.1	> 74.9	> 100	> 100	> 100	> 100	> 100	> 43.8	33.1	0.846	> 100	> 100	0.794	> 100	> 100	> 100	> 100	0.576	> 100

Source: PubChem BioAssay (NCI)
